We go through four compounds from PMC12345137 (mBio, 2025).

Entries after “also recorded” stand apart in the source; their conditions may differ. Where two headings read alike, the source gives them in different places. Positions of bridges follow the written chain, without caps; N, C: chain ends. Residues, ends and D or L forms follow the SMILES beside them.

One assay relates to S. aureus (SA) agr-III. The settings on record: b-lactamase, cited from earlier work.
The test system of assay [1] is S. aureus (SA) agr-II. To be noted: b-lactamase, cited from earlier work.
Assay [2] relates to S. aureus (SA) agr-II. The arrangement: method as in ref (5) (a number printed in a supplementary file, which may have a reference list of its own: not looked up in the article's list). To be noted: hemolysis; ref (5); cited from earlier work.
In assay [3] the test system is S. epidermidis (SE) agr-I. The arrangement: method as in ref (9) (a number printed in a supplementary file, which may have a reference list of its own: not looked up in the article's list). The settings on record: HPLC d-toxin, ref (9); cited from earlier work.
Assay [4] concerns S. aureus (SA) agr-IV. To be noted: b-lactamase; ref (4); cited from earlier work.
Assay [5] concerns S. aureus agr-I P3-YFP reporter strain. The assay is described as follows: Quorum sensing inhibition resistance development experiment. It is filed as cell-based, Staphylococcus aureus. The settings on record: flow cytometry. Here is the method: The next day, YFP expression levels were assessed by flow cytometry (YFP: excitation 500 nm, emission 541 nm), and the overnight cultures were diluted 1:250 in fresh TSB medium containing CAM and 33 or no peptide (final volume 2.0 mL) and incubated overnight at 37°C in a shaking incubator. The procedure was repeated in total for 15 days, and the passaged cultures were subsequently frozen at −80°C. The passaged cultures were inoculated from frozen stocks in 2.0 mL TSB medium containing CAM in 15 mL centrifugal tubes and incubated overnight at 37°C in a shaking incubator.
Background: In flow cytometry, cells or beads pass a laser one at a time.

A further assay deals with SA AgrC-I (Staphylococcus aureus, UniProt O07911). Briefly: β-Lactamase assay, reporter strain RN10829 (P2-agrA:P3-blaZ) with pagrC-I. It is filed as cell-based. An outline of the steps:
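S. aureus RN10829 (P2-agrA:P3-blaZ) expressing AgrC-I from plasmid, grown in TSB to OD600 0.35–0.40, treated with peptides (10 μM–10 pM) plus cognate AIP (100 nM) for 1 h at 37°C, 200 rpm.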

Assay [6] deals with S. aureus agr-I spa-GFP reporter strain (JE2, MRSA) (Staphylococcus aureus, UniProt A0A0H2XKA3). The assay is described as follows: Fluorescence reporter assay for agr deactivation of virulent S. aureus (JE2 spa-GFP). It is filed as cell-based. To be noted: GFP expression relative to non-induced cultures. Here is the method:
A fluorescent reporter strain of S. aureus JE2 containing a plasmid with a spa::GFP promoter was constructed by transforming the strain with pALC1741 ([52]). Cultures of the reporter strain were grown from single colonies in TSB medium containing chloramphenicol (CAM, 10 μg/mL) and S. aureus AIP-I (1) (concentrations = 500 nM, 100 nM, or 50 nM) to OD600 = 0.2–0.3 (early exponential phase) at 37°C. Assays were performed in sterile black 96-well plates with clear bottoms. Peptide solutions (15 μL) in 1:5 serial dilutions from DMSO stock solutions (1 mM) in TSB medium were added to the 96-well plate in technical triplicate followed by the induced bacterial cultures (135 μL). Control wells were uninduced cultures containing no S. aureus AIP-I (1). The 96-well plates were incubated in a plate reader at 37°C shaking at 283 rpm and fluorescence (GFP: excitation 479 nm, emission 520 nm, automatic gain), and OD600 values were continuously measured. […] Relative GFP expression was plotted to obtain IC50 values by non-linear regression with variable slope using GraphPad Prism 10.4 software. All assays were performed in biological triplicate.
On the technique in general: A reporter such as luciferase makes a cellular process visible.

Assay [7] has as its system S. aureus (SA) agr-IV. The arrangement: method as in ref (5) (a number printed in a supplementary file, which may have a reference list of its own: not looked up in the article's list). The settings on record: hemolysis; ref (5); cited from earlier work.
A further assay concerns S. aureus (SA) agr-I. The arrangement: method as in ref (5) (a number printed in a supplementary file, which may have a reference list of its own: not looked up in the article's list). The settings on record: hemolysis; ref (5); cited from earlier work.
For assay [8], the system named is S. epidermidis (SE) agr-III. The settings on record: fluorescence; at 10 µM; ref (11); cited from earlier work.
Assay [9] relates to S. epidermidis (SE) agr-II. To be noted: fluorescence; at 100 nM; ref (11); cited from earlier work.

Sequence of S. aureus agr-I spa-GFP reporter strain (JE2, MRSA) (A0A0H2XKA3 entry or part of it): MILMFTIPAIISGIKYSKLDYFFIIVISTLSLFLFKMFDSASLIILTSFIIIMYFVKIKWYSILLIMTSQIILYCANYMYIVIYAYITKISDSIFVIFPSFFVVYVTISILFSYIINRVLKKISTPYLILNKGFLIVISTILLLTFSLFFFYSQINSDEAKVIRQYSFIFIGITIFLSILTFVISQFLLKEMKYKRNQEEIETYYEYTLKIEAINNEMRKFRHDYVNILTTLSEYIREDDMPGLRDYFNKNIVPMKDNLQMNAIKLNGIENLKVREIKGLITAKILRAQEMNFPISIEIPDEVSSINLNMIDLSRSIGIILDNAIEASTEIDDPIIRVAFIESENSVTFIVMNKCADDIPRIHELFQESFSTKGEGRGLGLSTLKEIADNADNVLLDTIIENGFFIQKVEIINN
Sequence of SA AgrC-I (O07911 entry or part of it): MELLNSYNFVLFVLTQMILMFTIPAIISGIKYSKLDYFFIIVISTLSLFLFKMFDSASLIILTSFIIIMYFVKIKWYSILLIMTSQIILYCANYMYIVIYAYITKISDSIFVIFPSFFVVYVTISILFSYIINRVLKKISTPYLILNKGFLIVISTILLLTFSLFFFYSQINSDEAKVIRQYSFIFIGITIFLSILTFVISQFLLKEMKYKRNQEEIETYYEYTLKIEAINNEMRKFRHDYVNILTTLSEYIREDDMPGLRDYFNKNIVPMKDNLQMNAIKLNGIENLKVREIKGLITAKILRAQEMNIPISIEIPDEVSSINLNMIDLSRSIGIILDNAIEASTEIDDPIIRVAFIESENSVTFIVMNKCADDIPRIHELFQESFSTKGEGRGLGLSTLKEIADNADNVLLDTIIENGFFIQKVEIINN

With `CC[C@H](C)[C@@H]1NC(=O)[C@H](Cc2ccccc2)NC(=O)[C@H](CC(=O)O)NC(=O)[C@@H](NC(=O)[C@@H](NC(=O)[C@H](CO)NC(=O)[C@@H](N)Cc2ccc(O)cc2)[C@@H](C)O)CSC(=O)[C@H](CCSC)NC1=O` [compound 1, S. aureus AIP-I] (H-YSTCDFIM; thioester 4-C), the IC50 in the assay with S. aureus (SA) agr-III (ref (2)) was 3.1 ± 1.3 nM; with S. aureus (SA) agr-III (ref (4)) it was 3 nM; with S. aureus (SA) agr-II [1] (ref (2)), 3.4 ± 1.2 nM; with S. aureus (SA) agr-II [1] (ref (4)), 25 nM; in the assay with S. aureus (SA) agr-II [2] it was 3.34 nM. In addition, the “inhibition at 1000 nM, SE agr-I” value in assay [3] is “no inhibition”. Further, the EC50 in the assay with S. aureus (SA) agr-IV [4] was 26000 nM.

`NCCCC[C@H](N)C(=O)N[C@@H](Cc1ccc(O)cc1)C(=O)N[C@@H](Cc1ccc(O)cc1)C(=O)N1CCC[C@H]1C(=O)N[C@H]1CSC(=O)[C@H](Cc2ccccc2)NC(=O)[C@H](Cc2ccc(O)cc2)NC(=O)CNC(=O)[C@H](Cc2c[nH]c3ccccc23)NC1=O` [compound 33, S. simulans AIP-II] (H-KYYPCWGYF; thioester 5-C): the “agr activity during daily passaging for 15 days” value in [5] (33 at 2 nM or 100 nM) is “full repression of agr activity; also recorded: repressed agr activity”. Further, in assay [5] (passaged cultures treated with 33 (10–0.08 nM)), the “susceptibility to QS inhibition after 15 passages compared with non-passaged reporter strain” value is “no change in potency; also recorded: remained equally susceptible”. The IC50 against SA AgrC-I came out at 1.9 ± 0.3 nM; in assay [6] (induced with 1 [50 nM]), 3.3 nM; in [6] (induced with 1 [100 nM]), 5.2 nM; in [6] (induced with 1 [500 nM]), 18.4 nM.

`NCCCC[C@H](N)C(=O)N[C@@H](Cc1ccc(O)cc1)C(=O)N[C@@H](CC(N)=O)C(=O)N1CCC[C@H]1C(=O)N[C@H]1CSC(=O)[C@H](Cc2ccccc2)NC(=O)[C@H](Cc2ccc(O)cc2)NC(=O)CNC(=O)[C@H](Cc2c[nH]c3ccccc23)NC1=O` [compound 34, S. simulans AIP-III] (H-KYNPCWGYF; thioester 5-C) returned an IC50 at SA AgrC-I of 1.6 ± 0.1 nM.

With “S. aureus AIP-III D4A [compound 57, reference compound]”, the IC50 with S. aureus (SA) agr-IV [7] is 0.11 nM; in the assay with S. aureus (SA) agr-I it was 0.082 nM; in the assay on S. aureus (SA) agr-II [2], 0.06 nM. In assay [8], the “inhibition at 10 µM, SE agr-III” value is reported as ~ 25%. Moreover, the “inhibition at 100 nM, SE agr-II” value in assay [9] is reported as ~ 70%.

One may read the IC50 as the concentration at which inhibition is half-maximal. What is called EC50 is the midpoint of the concentration-response curve.
